From patent US20260355171A1, “INHIBITORS AND USES THEREFOR” (priority 2022, published 2026)

Assays:
[1] = test system: primary neurons; test: Cytotoxicity / neuronal cell death in the presence of NSP5 (PI/DAPI)
[2] = test system: primary neurons; test: Neuronal cell death in the presence of NMDA; format: cell-based, mouse; settings: 1 or 10 μM compound, 100 μM NMDA
Experimental: (§1) Primary neurons were treated with 0.4, 1, 2, 10 or 50 μM of compound 2 or compound 22 (prepared according to Example 2). NSP5 was added to primary neurons at DIV11, and compound 2 or 22 was added 48 hours later. Cells were treated with propidium iodide 48 hours after compound addition. Cells were washed with PBS and fixed with 4% PFA. Cells were then washed and stained with DAPI. Images of cells were taken with ZEISS Axioscan 7 microscope slide scanner. Cell death was determined by Image J analysis, counting the death cell (red, PI)) vs all cells (blue, DAPI).
(§2) One hour after compound addition (1 or 10 μM of compound 2 or compound 22) neurons were treated with a cytotoxic agent (100 μM N-methyl-D-aspartate (NMDA), 100 μM H2O2 or 5 μM staurosporine). One hour after treatment with the cytotoxic agent, the media was replaced with fresh media and the neurons were incubated for 24 hours. A final concentration of 1 μM propidium iodide (PI) was added into the well and incubated for 5 mins. Cells were washed with phosphate-buffered saline (PBS) and then fixed with 4% PFA. Cells were then washed and stained with DAPI, and cell death determined as described above.

[3] = test system: primary neurons; test: Neuronal cell death in the presence of staurosporine; format: cell-based, mouse; settings: 1 or 10 μM compound, 5 μM staurosporine
Experimental: as §1, §2

[4] = test system: primary neurons; test: Neuronal cell death in the presence of H2O2; format: cell-based, mouse; settings: 1 or 10 μM compound, 100 μM H2O2
Experimental: as §1, §2

[5] = test system: primary neurons expressing SARS-CoV-2 NSP5 (AAV9-NSP5-V5); test: Effect on neurons in the presence of NSP5 (AAV9-NSP5-V5, immunofluorescence); format: cell-based, mouse; settings: 0.4, 2, 10 or 50 μM, two days
[6] = test system: primary neurons; test: Effect of compounds on neuronal cell death caused by NSP5 (Example 6); format: cell-based, mouse; settings: 10 μM, 48 hours

Row | SMILES | Reduction of neuronal cell death caused by NSP5 ([1]; 0.4, 1, 2, 10 or 50 μM, 48 hours) | Cell death caused by compound ([1]; therapeutic concentrations (nM to low μM)) | Protection from NMDA-induced neurotoxicity [2] | Protection from staurosporine-induced neurotoxicity [3] | Protection from H2O2-induced neurotoxicity [4] | Prevention of NSP5-induced neuronal death [5] | Reduction of neuronal cell death caused by NSP5 [6]
1 | NC(=O)C1CCN(c2ncccc2CNC(=O)c2cccc3ccsc23)CC1 [Compound 2] | selectively reduced neuronal cell death caused by NSP5 | did not cause any cell death | did not protect | did not protect | did not protect | prevented NSP5-induced neuronal death in a dose-dependent manner | 
2 | NC(=O)C1CCN(c2ncccc2CNC(=O)c2cc(F)cc(C(F)(F)F)c2)CC1 [Compound 35] |  |  |  |  |  |  | greatest activity
